Values quoted from earlier work in US7026301B2, “Method of orally treating inflammatory skin conditions with prodrugs of 5-fluorouracil” (New York University, priority 2002, dated 2006).

Key:
[1] = treated patients; for patients in whom hand-foot syndrome occurred: any grade
[2] = target: T1, dihydropyrimidine dehydrogenase (DPD) (Homo sapiens, UniProt Q12882)
T1 construct: host or cells: endogenous enzyme of patients (in vivo)
T1 sequence (Q12882 4-1025): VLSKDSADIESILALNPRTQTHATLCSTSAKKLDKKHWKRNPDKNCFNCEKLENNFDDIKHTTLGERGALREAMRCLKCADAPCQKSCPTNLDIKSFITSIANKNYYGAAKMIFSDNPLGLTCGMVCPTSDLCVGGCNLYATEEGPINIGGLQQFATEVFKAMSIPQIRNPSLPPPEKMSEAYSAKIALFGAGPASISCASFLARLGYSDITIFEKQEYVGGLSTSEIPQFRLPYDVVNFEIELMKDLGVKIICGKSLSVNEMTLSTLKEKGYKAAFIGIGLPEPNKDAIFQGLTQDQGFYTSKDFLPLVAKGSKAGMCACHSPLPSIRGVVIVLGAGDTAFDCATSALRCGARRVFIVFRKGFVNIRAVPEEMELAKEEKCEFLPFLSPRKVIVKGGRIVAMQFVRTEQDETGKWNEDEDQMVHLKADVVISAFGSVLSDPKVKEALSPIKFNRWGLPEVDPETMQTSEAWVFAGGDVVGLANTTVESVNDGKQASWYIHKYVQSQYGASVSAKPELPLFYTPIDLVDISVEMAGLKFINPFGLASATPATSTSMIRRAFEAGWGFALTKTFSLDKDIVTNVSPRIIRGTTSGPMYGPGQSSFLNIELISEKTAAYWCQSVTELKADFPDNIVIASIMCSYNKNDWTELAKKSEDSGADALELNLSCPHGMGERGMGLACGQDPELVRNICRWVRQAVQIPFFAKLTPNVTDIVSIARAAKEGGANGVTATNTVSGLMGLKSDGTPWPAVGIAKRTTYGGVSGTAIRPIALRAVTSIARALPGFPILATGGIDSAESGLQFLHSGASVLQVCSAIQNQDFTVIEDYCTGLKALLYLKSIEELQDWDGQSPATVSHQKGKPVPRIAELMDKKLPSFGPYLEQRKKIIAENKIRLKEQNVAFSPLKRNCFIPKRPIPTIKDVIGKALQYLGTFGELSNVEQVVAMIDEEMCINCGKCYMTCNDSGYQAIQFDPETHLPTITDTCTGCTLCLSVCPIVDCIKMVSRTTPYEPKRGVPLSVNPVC

[3] = humans

| Molecule | patients in whom hand-foot syndrome occurred [1] [%] | patients with the most severe form (grade 3) of hand-foot syndrome [1] [%] | share of the injected dose deactivated by DPD [2] | oral absorption [3] |
| --- | --- | --- | --- | --- |
| 5-FU/leucovorin | 6 | 1 | – | – |
| O=c1[nH]cc(F)c(=O)[nH]1 [5-FU, 5-fluorouracil] | – | – | more than 85% | – |
| CCCCCOC(=O)Nc1nc(=O)n([C@@H]2O[C@H](C)[C@@H](O)[C@H]2O)cc1F [capecitabine, N^4-pentyloxycarbonyl-5′-deoxy-5-fuorocytidine] | 53 | 17 | – | rapidly and almost completely absorbed |
